Experimental data published in patent publication US11464770B2, “Anticancer pharmaceutical composition” (NATIONAL CANCER CENTER, priority 2016, dated 2022).
Where two headings read alike, the source gives them in different places.

What was measured:
renal cancer cell lines = experiment: Cell based assay, cell viability (CellTiter-Glo), renal cancer cell lines; conditions: Homo sapiens; ACHN cells
Method: (§1) Commercially available bladder cancer, prostate cancer, lung cancer, breast cancer, blood cancer, pancreatic cancer, colorectal cancer, brain cancer, neuroblastoma, melanoma, liver cancer, cervical carcinoma, ovarian cancer, renal cancer, and papilloma cell lines were each treated with trypsin-EDTA and cultured, followed by being seeded in each well of a 96 well plate. After 24 hours of treatment at constant temperature, the respective cells were treated with the candidate compound so that a final concentration became 0 to 2 μM. The treated cells were additionally cultured for 72 hours, and cell viability was measured by using an ATP detection method (CellTiter-Glo® Luminescent Cell Viability Assay, Promega).

[1] = system: lung cancer cell lines (e.g. NCI-H23, NCI-H1229); experiment: Cell based assay, cell viability (CellTiter-Glo), lung cancer cell lines; conditions: Homo sapiens
Method: as §1

[2] = A549 cells, 72 hours treatment, CellTiter-Glo, read-out: IC50, lung cancer cell line A549
[3] = DMS 114 cells, 72 hours treatment, CellTiter-Glo, read-out: IC50, lung cancer cell line DMS 114
[4] = MRC-5 cells, 72 hours treatment, CellTiter-Glo, read-out: IC50
[5] = NCI-H23 cells, 72 hours treatment, CellTiter-Glo, read-out: IC50, lung cancer cell line NCI-H23
[6] = NCI-H460 cells, 72 hours treatment, CellTiter-Glo, read-out: IC50, lung cancer cell line NCI-H460
[7] = NCI-H522 cells, 72 hours treatment, CellTiter-Glo, read-out: IC50, lung cancer cell line NCI-H522
[8] = NCI-H1299 cells, 72 hours treatment, CellTiter-Glo, read-out: IC50, lung cancer cell line NCI-H1299
[9] = NCI-H1437 cells, 72 hours treatment, CellTiter-Glo, read-out: IC50, lung cancer cell line NCI-H1437
[10] = Lung cancer cell line A549, 72 hours, cell viability (CellTiter-Glo), read-out: IC50, A549
[11] = Lung cancer cell line DMS 114, 72 hours, cell viability (CellTiter-Glo), read-out: IC50, DMS 114
[12] = Lung cancer cell line NCI-H23, 72 hours, cell viability (CellTiter-Glo), read-out: IC50, NCI-H23
[13] = Lung cancer cell line NCI-H460, 72 hours, cell viability (CellTiter-Glo), read-out: IC50, NCI-H460
[14] = Lung cancer cell line NCI-H522, 72 hours, cell viability (CellTiter-Glo), read-out: IC50, NCI-H522
[15] = Lung cancer cell line NCI-H1299, 72 hours, cell viability (CellTiter-Glo), read-out: IC50, NCI-H1299
[16] = Lung cancer cell line NCI-H1437, 72 hours, cell viability (CellTiter-Glo), read-out: IC50, NCI-H1437
[17] = MRC-5 (listed under Lung cancer cell line), 72 hours, cell viability (CellTiter-Glo), read-out: IC50, MRC-5

Row | IC50 (renal cancer cell lines) [nM] | IC50 [1, 2] [nM] | IC50 [1, 3] [nM] | IC50 [1, 5] [nM] | IC50 [1, 6] [nM] | IC50 [1, 7] [nM] | IC50 [1, 8] [nM] | IC50 [1, 9] [nM] | IC50 [1, 10] [nM] | IC50 [1, 11] [nM] | IC50 [1, 12] [nM] | IC50 [1, 13] [nM] | IC50 [1, 14] [nM] | IC50 [1, 15] [nM] | IC50 [1, 16] [nM] | SMILES | IC50 [1, 4] [nM] | IC50 [1, 17] [nM]
1 | > 2000 | > 2000 | > 2000 | 1800 | > 2000 | > 2000 | > 2000 | > 10000 | – | – | – | – | – | – | – | COC(=O)c1ccc(C[S+]([O-])c2[nH]c3c(Cl)ccc(Cl)c3c(=O)c2C(C)=O)cc1 (stereo not drawn) [Compound 91, methyl 4-(((3-acetyl-5,8-dichloro-4-oxo-1,4-dihydroquinolin-2-yl)sulfinyl)methyl)benzoate] | > 2000 | –
2 | 1630 | – | – | – | – | – | – | – | 1640 | > 2000 | 1260 | 1440 | 1490 | 1110 | > 10000 | CC(=O)c1c([S+]([O-])Cc2ccc(C(F)(F)F)nc2C)[nH]c2c(Br)ccc(Cl)c2c1=O (stereo not drawn) [Compound 102, 3-acetyl-8-bromo-5-chloro-2-(((2-methyl-6-(trifluoromethyl)pyridin-3-yl)methyl)sulfinyl)quinolin-4(1H)-one] | – | 1430
3 | > 2000 | > 2000 | > 2000 | > 2000 | > 2000 | > 2000 | > 2000 | > 10000 | – | – | – | – | – | – | – | CC(=O)c1c(SC(C)C)[nH]c2c(Br)ccc(Cl)c2c1=O [Compound 24, 3-acetyl-8-bromo-5-chloro-2-(isopropylthio)quinolin-4(1H)-one] | > 2000 | –
4 | > 2000 | > 2000 | > 2000 | > 2000 | > 2000 | > 2000 | > 2000 | > 10000 | – | – | – | – | – | – | – | CC(=O)c1c(S(=O)(=O)Cc2ccccc2)nc2c(Br)ccc(Cl)c2c1O [Compound 54, 1-(2-(benzylsulfonyl)-8-bromo-5-chloro-4-hydroxyquinolin-3-yl)ethan-1-one] | > 2000 | –
5 | > 2000 | > 2000 | > 2000 | > 2000 | > 2000 | > 2000 | > 2000 | > 10000 | – | – | – | – | – | – | – | CCS(=O)(=O)n1c([S+](C)[O-])c(C(C)=O)c(=O)c2c(Cl)ccc(Br)c21 (stereo not drawn) [Compound 39, 3-acetyl-8-bromo-5-chloro-1-(ethylsulfonyl)-2-(methylsulfinyl)quinolin-4(1H)-one] | > 2000 | –
6 | > 2000 | > 2000 | > 2000 | 750 | 1600 | 1880 | 1110 | > 10000 | – | – | – | – | – | – | – | CC(=O)c1c([S+]([O-])Cc2cccc(C#N)c2)[nH]c2c(Br)ccc(Cl)c2c1=O (stereo not drawn) [Compound 28, 3-(((3-acetyl-8-bromo-5-chloro-4-oxo-1,4-dihydroquinolin-2-yl)sulfinyl)methyl)benzonitrile] | 700 | –
7 | > 2000 | > 2000 | > 2000 | > 2000 | > 2000 | > 2000 | > 2000 | > 10000 | – | – | – | – | – | – | – | Cc1cc(C[S+]([O-])c2[nH]c3c(Cl)ccc(Cl)c3c(=O)c2C(=O)c2ccccc2)no1 (stereo not drawn) [Compound 88, 3-benzoyl-5,8-dichloro-2-(((5-methylisoxazol-3-yl)methyl)sulfinyl)quinolin-4(1H)-one] | > 2000 | –
8 | > 2000 | > 2000 | > 2000 | > 2000 | > 2000 | > 2000 | > 2000 | > 10000 | – | – | – | – | – | – | – | CC(=O)c1c([S+](C)[O-])n(S(=O)(=O)C(F)(F)F)c2c(Br)ccc(Cl)c2c1=O (stereo not drawn) [Compound 36, 3-acetyl-8-bromo-5-chloro-2-(methylsulfinyl)-1-((trifluoromethyl)sulfonyl)quinolin-4(1H)-one] | > 2000 | –
9 | > 2000 | > 2000 | > 2000 | > 2000 | > 2000 | > 2000 | > 2000 | > 10000 | – | – | – | – | – | – | – | CC(=O)c1c(SCc2cccc(I)c2)[nH]c2c(Br)ccc(Cl)c2c1=O [Compound 47, 3-acetyl-8-bromo-5-chloro-2-((3-iodobenzyl)thio)quinolin-4(1H)-one] | > 2000 | –
10 | > 2000 | > 2000 | > 2000 | > 2000 | > 2000 | > 2000 | > 2000 | > 10000 | – | – | – | – | – | – | – | CC(=O)c1c(SCc2ccccc2)n(C(=O)c2ccc(Br)cc2)c2c(Br)ccc(Cl)c2c1=O [Compound 23, 3-acetyl-2-(benzylthio)-8-bromo-1-(4-bromobenzoyl)-5-chloroquinolin-4(1H)-one] | > 2000 | –
11 | > 2000 | – | – | – | – | – | – | – | > 2000 | > 2000 | > 2000 | > 2000 | > 2000 | > 2000 | > 10000 | CC(=O)c1c([S+]([O-])Cc2cnc3[nH]ccc3c2)[nH]c2c(Br)ccc(Cl)c2c1=O (stereo not drawn) [Compound 107, 2-(((1H-pyrrolo[2,3-b]pyridin-5-yl)methyl)sulfinyl)-3-acetyl-8-bromo-5-chloroquinolin-4(1H)-one] | – | > 2000
12 | > 2000 | > 2000 | > 2000 | > 2000 | > 2000 | > 2000 | > 2000 | > 10000 | – | – | – | – | – | – | – | CSc1c(C(C)=O)c(=O)c2c(Cl)ccc(Br)c2n1S(=O)(=O)c1ccc(Cl)cc1 [Compound 37, 3-acetyl-8-bromo-5-chloro-1-((4-chlorophenyl)sulfonyl)-2-(methylthio)quinolin-4(1H)-one] | > 2000 | –
13 | > 2000 | 1840 | > 2000 | 960 | 1510 | > 2000 | 1320 | > 10000 | – | – | – | – | – | – | – | CC(=O)c1c([S+]([O-])Cc2cccc(S(F)(F)(F)(F)F)c2)[nH]c2c(Br)ccc(Cl)c2c1=O (stereo not drawn) [Compound 77, 3-acetyl-8-bromo-5-chloro-2-((3-(pentafluoro--sulfanyl)benzyl)sulfinyl)quinolin-4(1H)-one] | 1060 | –
14 | > 2000 | > 2000 | > 2000 | 2070 | > 2000 | > 2000 | > 2000 | > 10000 | – | – | – | – | – | – | – | COc1cccc2[nH]c([S+]([O-])Cc3cc(C)on3)c(C(C)=O)c(=O)c12 (stereo not drawn) [Compound 94, 3-acetyl-5-methoxy-2-(((5-methylisoxazol-3-yl)methyl)sulfinyl)quinolin-4(1H)-one] | > 2000 | –
15 | > 2000 | > 2000 | > 2000 | > 2000 | > 2000 | > 2000 | > 2000 | > 10000 | – | – | – | – | – | – | – | CSc1c(C(C)=O)c(=O)c2cc(F)ccc2n1C [Compound 7, 3-acetyl-6-fluoro-1-methyl-2-(methylthio)quinolin-4(1H)-one] | > 2000 | –
16 | > 2000 | > 2000 | > 2000 | > 2000 | > 2000 | > 2000 | > 2000 | > 10000 | – | – | – | – | – | – | – | CC(=O)c1c([S+](C)[O-])n(Cc2ccc(F)c(Cl)c2)c2c(Br)ccc(Cl)c2c1=O (stereo not drawn) [Compound 22, 3-acetyl-8-bromo-5-chloro-1-(3-chloro-4-fluorobenzyl)-2-(methylsulfinyl)quinolin-4(1H)-one] | > 2000 | –
17 | > 2000 | > 2000 | > 2000 | > 2000 | > 2000 | > 2000 | > 2000 | > 10000 | – | – | – | – | – | – | – | CC(=O)c1c(SCc2ccccc2)nc2c(Br)ccc(Cl)c2c1O [Compound 52, 1-(2-(benzylthio)-8-bromo-5-chloro-4-hydroxyquinolin-3-yl)ethan-1-one] | > 2000 | –
18 | 1670 | > 2000 | > 2000 | 1340 | > 2000 | 1820 | 1800 | > 10000 | – | – | – | – | – | – | – | Cc1cc(C[S+]([O-])c2[nH]c3c(Br)ccc(Cl)c3c(=O)c2C(=O)C2CC2)no1 (stereo not drawn) [Compound 96, 8-bromo-5-chloro-3-(cyclopropanecarbonyl)-2-(((5-methylisoxazol-3-yl)methyl)sulfinyl)quinolin-4(1H)-one] | 1810 | –
19 | > 2000 | > 2000 | > 2000 | > 2000 | > 2000 | > 2000 | > 2000 | > 10000 | – | – | – | – | – | – | – | CC(=O)c1c(S/C=C\C(=O)O)[nH]c2c(Br)ccc(Cl)c2c1=O [Compound 67, (Z)-3-((3-acetyl-8-bromo-5-chloro-4-oxo-1,4-dihydroquinolin-2-yl)thio)acrylic acid] | > 2000 | –
